Source: BindingDB's records for doi:10.7270/Q25Q4TJ1 (Burnham Center For Chemical Genomics, 2010)

target: Intestinal-type alkaline phosphatase (Mus musculus, UniProt P24822); assay: PubChem AID 488874
Sequence (P24822 whole entry, looked up): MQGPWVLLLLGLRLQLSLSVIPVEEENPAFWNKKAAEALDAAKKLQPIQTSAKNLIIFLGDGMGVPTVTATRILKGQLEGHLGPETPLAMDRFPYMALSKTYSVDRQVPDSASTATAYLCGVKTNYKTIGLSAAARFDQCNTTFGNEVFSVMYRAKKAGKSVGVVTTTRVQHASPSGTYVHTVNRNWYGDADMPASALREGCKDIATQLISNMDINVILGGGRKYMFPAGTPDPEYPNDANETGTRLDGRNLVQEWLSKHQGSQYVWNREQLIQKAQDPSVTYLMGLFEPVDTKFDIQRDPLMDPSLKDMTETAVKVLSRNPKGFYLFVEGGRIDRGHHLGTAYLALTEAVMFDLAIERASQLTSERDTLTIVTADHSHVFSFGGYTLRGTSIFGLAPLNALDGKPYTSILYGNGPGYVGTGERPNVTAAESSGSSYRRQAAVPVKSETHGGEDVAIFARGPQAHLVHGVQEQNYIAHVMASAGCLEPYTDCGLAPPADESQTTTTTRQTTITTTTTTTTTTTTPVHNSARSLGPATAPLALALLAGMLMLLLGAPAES

Row | Structure (SMILES) | IC50
1 | Cc1c(C(=O)NN=Cc2ccc(O)cc2O)[nH][nH]c1=O | > 100 µM
2 | CC(N=Nc1ccccc1[N+](=O)[O-])c1ccc([N+](=O)[O-])cc1 (stereo not given) | > 100 µM
3 | Cc1cc(Br)ccc1SCC(=O)OCC(=O)C(C#N)c1nc2ccccc2[nH]1 (stereo not given) [2-[(4-bromo-2-methylphenyl)thio]acetic acid [3-cyano-3-(1,3-dihydrobenzimidazol-2-ylidene)-2-oxopropyl] ester] | > 100 µM
4 | CCOC1=CC(=Cc2c(C)[nH]oc2=O)C=C(Br)C1=O [4-[(Z)-(3-bromo-5-ethoxy-4-oxo-1-cyclohexa-2,5-dienylidene)methyl]-3-methyl-2H-isoxazol-5-one] | 33.1 µM
5 | C=c1[nH]n(Cc2ccccc2)c(=O)c1=Cc1ccc(N(C)C)cc1 [(4Z)-4-[[4-(dimethylamino)phenyl]methylidene]-5-methyl-2-(phenylmethyl)-3-pyrazolone] | 35.1 µM
6 | CCOC(=O)c1c(C)[nH]c(C(=O)N/N=C/C2C=C([N+](=O)[O-])C=CC2=O)c1C (stereo not given) [ethyl 2,4-dimethyl-5-[[[(E)-(3-nitro-6-oxocyclohexa-2,4-dien-1-ylidene)methyl]amino]carbamoyl]-1H-pyrrole-3-carboxylate] | > 100 µM
7 | O=C(O)[C@H]1O[C@@H](Oc2c(-c3ccc(O)c(O)c3)oc3cc(O)cc(=O)c-3c2O)[C@H](O)[C@@H](O)[C@@H]1O [quercetin glucuronide] | 3.29 µM

Further lines, results first:

Row | IC50 | Structure (SMILES)
8 | 75.3 µM | O=c1c2ccccc2nc(N=NCc2c(O)ccc3ccccc23)n1O [SMR000145705]
9 | 3.84 µM | O=C(Nn1c(O)csc1=S)C(=O)Nn1c(O)csc1=S [SMR000349781]
10 | 35.5 µM | O=Nc1[nH]c(=O)c(CC(=O)c2ccccc2)nc1NO [SMR000539633]
